The nature of data set [1]: Fraction absorbed in cynomolgus monkey at 1 mg/kg, po. Type of data set: ADME, organism-based, Macaca fascicularis. Also on record: dose 1 mg/kg, route oral. Conditions: in vivo, read-out: Fabs.
A short description of data set [2]: Oral bioavailability in cynomolgus monkey at 1 mg/kg. The class given is ADME, organism-based, Macaca fascicularis. Conditions: in vivo.
Data set [3] in a line: physchem. Conditions: buffer, pH 7.4.
The nature of data set [4]: in vitro. The following applies: human, Caco-2.
Data set [5] concerns Cynomolgus monkey. The data set is described as follows: AUC (0 to infinity) in cynomolgus monkey at 1 mg/kg, po. The class given is ADME, organism-based, Macaca fascicularis, Plasma. Conditions: in vivo. Also on record: time infinity, dose 1 mg/kg, route oral.
Data set [6] concerns Cynomolgus monkey. The data set is described as follows: AUC (0 to infinity) in cynomolgus monkey at 1 mg/kg, iv. Type of data set: ADME, organism-based, Macaca fascicularis, Plasma. Further details: time infinity, dose 1 mg/kg, route intravenous. The following applies: in vivo.
A short description of data set [7]: Tmax in cynomolgus monkey at 1 mg/kg, po. Type of data set: ADME, organism-based, Macaca fascicularis. Further details: dose 1 mg/kg, route oral. The following applies: in vivo.
A short description of data set [8]: Volume of distribution at steady state in cynomolgus monkey at 1 mg/kg, iv. Type of data set: ADME, organism-based, Macaca fascicularis. Also on record: dose 1 mg/kg, route intravenous. The following applies: in vivo, read-out: Vdss.
Data set [9] can be described thus: Cmax in cynomolgus monkey at 1 mg/kg, po. Further details: dose 1 mg/kg, route oral. The following applies: in vivo. Type of data set: ADME, organism-based, Macaca fascicularis.

For orientation: bioavailability means dose-corrected exposure relative to a reference, in per cent. Usually solubility stands for the concentration that dissolves in the medium under given conditions. As a reminder, the Papp A→B is the apparent permeability from the apical to the basolateral side of a cell layer. Broadly, the AUC is the area under the concentration-time curve, a measure of exposure. As a reminder, the Tmax is the time at which the peak concentration occurs. As usually defined, the Cmax is the peak of the concentration-time curve.

As for `CN(c1ccc2c(c1)S(=O)(=O)N=C(c1c(O)c(-c3cccs3)nn(CCC(C)(C)C)c1=O)N2)S(C)(=O)=O`, the Fa in data set [1] amounted to 5%. This compound returned a bioavailability in data set [2] of 3%. Also, the solubility in data set [3] was more than 100 µM. In addition, the Papp A→B at 10 µM in [4] turned out to be 0.01 ×10⁻⁶ cm/s.
For `CC(C)CCn1nc(CC2CC2)c(O)c(C2=NS(=O)(=O)c3cc(NS(C)(=O)=O)ccc3N2)c1=O`, in that order: 9%, 7%, more than 100 µM and 0.49 ×10⁻⁶ cm/s.
For `CC(C)CCn1nc(CC2CCCC2)c(O)c(C2=NS(=O)(=O)c3cc(NS(C)(=O)=O)ccc3N2)c1=O`, the Fa in data set [1] is 18%. Moreover, the bioavailability in data set [2] is 15%. For the same compound, the AUC was found to be 370 ng·h/mL in data set [5] and 2540 ng·h/mL in data set [6]. For the same compound, in [7], the time of peak concentration (Tmax) was 1.3 h. For the same compound, the Vd in [8] amounted to 0.15 L/kg. Also, in [9], the peak level (Cmax) was 113 ng/mL.
As to `CC(C)(C)CCn1nc(C2=CCCC2)c(O)c(C2=NS(=O)(=O)c3cc(NS(C)(=O)=O)ccc3N2)c1=O`, the Fa in data set [1] came to 7%. Besides, the bioavailability in data set [2] worked out at 4%.
Regarding `CC(C)(C)CCn1nc(CC2CCCC2)c(O)c(C2=Nc3ccc(NS(C)(=O)=O)cc3S(=O)(=O)N2)c1=O`, the Fa in [1] came out at 18%. This compound gave a bioavailability in data set [2] of 10%. Further, the values for the AUC in data set [5] and in [6] were 89 ng·h/mL and 851 ng·h/mL, respectively. Moreover, the Tmax in data set [7] was 6 h. The Vd in data set [8] is 0.57 L/kg. This compound displayed a Cmax in data set [9] of 13 ng/mL. Moreover, the solubility in data set [3] is more than 100 µM.
In the case of `CC(C)CCn1nc(C(C)(C)C)c(O)c(C2=NS(=O)(=O)c3cc(NS(C)(=O)=O)ccc3N2)c1=O`, the Fa in data set [1] worked out at 17%. The same compound registered a bioavailability in [2] of 15%. In addition, the AUC is 611 ng·h/mL in [5] and 3980 ng·h/mL in data set [6]. Further, the Tmax in data set [7] worked out at 1.5 h. For the same compound, in data set [8], the Vd turned out to be 0.17 L/kg. This compound registered a Cmax in data set [9] of 294 ng/mL. The compound further had a solubility in data set [3] of more than 100 µM. The compound further displayed a Papp A→B at 10 µM in [4] of 0.58 ×10⁻⁶ cm/s.
For `CC(C)CCn1nc(CC(C)(C)C)c(O)c(C2=NS(=O)(=O)c3cc(NS(C)(=O)=O)ccc3N2)c1=O`, the Fa in [1] is 8%. Moreover, the bioavailability in data set [2] was 6%. Moreover, the solubility in data set [3] was more than 100 µM. The compound also registered a Papp A→B at 10 µM in data set [4] of 0.29 ×10⁻⁶ cm/s.
Regarding `CS(=O)(=O)Nc1ccc2c(c1)S(=O)(=O)N=C(c1c(O)c(C3=CCCC3)nn(CCC3CC3)c1=O)N2`, the Fa in [1] was 6%. Moreover, the bioavailability in [2] came to 4%. This compound also gave a solubility in [3] of more than 100 µM. In [4], this compound yielded a Papp A→B at 10 µM of 0.59 ×10⁻⁶ cm/s.
Consider `CC(C)=Cc1nn(CCC(C)(C)C)c(=O)c(C2=NS(=O)(=O)c3cc(NS(C)(=O)=O)ccc3N2)c1O`, for which, in data set [1], the Fa stood at 2%. For the same compound, the bioavailability in [2] was found to be 2%. In addition, the solubility in data set [3] was more than 100 µM. This compound returned a Papp A→B at 10 µM in [4] of 1 ×10⁻⁶ cm/s.
In the case of `CC(C)(C)CCn1nc(CC(C)(C)C)c(O)c(C2=NS(=O)(=O)c3cc(NS(C)(=O)=O)ccc3N2)c1=O`, the Fa in data set [1] was 4%. The compound further had a bioavailability in data set [2] of 4%. This compound displayed a solubility in data set [3] of more than 100 µM. In data set [4], this compound came in with a Papp A→B at 10 µM of 0.15 ×10⁻⁶ cm/s.
Turning to `CC(C)(C)CCn1nc(C2CC2)c(O)c(C2=Nc3ccc(NS(C)(=O)=O)cc3S(=O)(=O)N2)c1=O`, the Fa in [1] came to 5%. In addition, the bioavailability in data set [2] turned out to be 4%. In addition, in [3], the solubility was more than 50 µM. The Papp A→B at 10 µM in data set [4] worked out at 0.95 ×10⁻⁶ cm/s.
With `CC(C)CCn1nc(-c2cccs2)c(O)c(C2=NS(=O)(=O)c3cc(N(C)S(C)(=O)=O)ccc3N2)c1=O`, the Fa in data set [1] was found to be 33%. Besides, the values for the AUC in [5] and in [6] were 72 ng·h/mL and 605 ng·h/mL, respectively. In data set [7], the Tmax worked out at 6 h. Also, the Vd in data set [8] was 0.57 L/kg. The same compound displayed a peak concentration (Cmax) in [9] of 11 ng/mL. In data set [3], this compound showed a solubility of more than 100 µM.
Take `CC(C)CCn1nc(-c2cccs2)c(O)c(C2=Nc3ccc(NS(C)(=O)=O)cc3S(=O)(=O)N2)c1=O`: the Fa in data set [1] is 4%. Moreover, the AUC in data set [5] was found to be 30 ng·h/mL; in [6] it was 1330 ng·h/mL. Also, the Tmax in [7] came to 6.3 h. In data set [8], the Vd is 0.18 L/kg. The compound also returned a Cmax in data set [9] of 3.8 ng/mL. Moreover, in data set [3], the solubility was more than 100 µM.
With `Cc1ccc(-c2nn(Cc3ccccc3)c(=O)c(C3=Nc4ccccc4S(=O)(=O)N3)c2O)s1`, the Fa in [1] was 36%. For the same compound, the values for the AUC in data set [5] and in data set [6] were 3650 ng·h/mL and 10900 ng·h/mL, respectively. The Tmax in data set [7] is 2 h. For the same compound, the Vd in [8] came to 0.21 L/kg. This compound returned a Cmax in [9] of 673 ng/mL. The compound further yielded a solubility in data set [3] of more than 80 µM.
Take `CC(C)(C)Cc1nn(CCC2CC2)c(=O)c(C2=Nc3ccc(NS(C)(=O)=O)cc3S(=O)(=O)N2)c1O`: the Fa in [1] was 7%. Also, the bioavailability in data set [2] came to 6%. Further, the solubility in data set [3] was more than 100 µM. The Papp A→B at 10 µM in [4] came to 0.7 ×10⁻⁶ cm/s.
